Earlier results in US20250248432A1, “MIXTURE COMPRISING D-ALLULOSE AND TASTE MODIFYING COMPOUNDS” (SYMRISE AG, priority 2019, published 2025).

Settings: relative to sucrose

## O=C(CO)C(O)C(O)C(O)CO [Allulose, D-allulose]
  sweetness intensity of sucrose: about 70%
